test system: wild-type HIV-1 strain IIIB; test: microbe, parasite or virus in culture; assay type: cell-based; conditions: Human immunodeficiency virus 1, IIIB, MT2

Compound	EC50 [nM]
CCOP(=O)(COc1ccc(S(=O)(=O)N(CC(C)C)CC(O)C(Cc2ccc(N)cc2)NC(=O)OC2COC3OCCC23)cc1)OCC (centres unmarked) [NH2, OEt]	50 to 500

same assay, conditions: read-out: EC50

Compound	EC50 [nM]
CCOC(=O)C(C)OP(=O)(Cc1ccc(N(C)CC(NC(=O)OC2COC3OCCC23)C(O)CN(CC(C)C)S(=O)(=O)c2ccc(OC)cc2)cc1)Oc1ccccc1 (centres unmarked)	< 50
CCCCCCCCc1ccc(OP(=O)(COc2ccc(C[C@H](NC(=O)O[C@H]3CO[C@H]4OCC[C@H]43)[C@H](O)CN(CC(C)C)S(=O)(=O)c3ccc(OC)cc3)cc2)O[C@@H](C)C(=O)OCC)cc1 (stereo partly drawn) [drawing 660 R1=OPh—p-n-Oct R2=(S)Lac-Et]	50 to 500
CCOC(=O)C(CC)NP(=O)(COc1ccc(C[C@H](NC(=O)O[C@H]2CO[C@H]3OCC[C@H]32)[C@H](O)CN(CC(C)C)S(=O)(=O)c2ccc(OC)cc2)cc1)NC(CC)C(=O)OCC (some centres unmarked) [drawing 655 R1=Aba-Et R2=Aba-Et]	< 50
CC(C)CN(CC(O)C(Cc1ccc(OCP(=O)(OCc2ccccc2)OC(C)C(=O)OCc2ccccc2)cc1)NC(=O)OC1COC2OCCC12)S(=O)(=O)c1ccc[n+]([O-])c1 (centres unmarked)	> 5000
CC(C)CN(C[C@@H](O)[C@H](Cc1ccc(OCP(=O)(OCc2ccccc2)OC(C)C(=O)OCc2ccccc2)cc1)NC(=O)O[C@H]1CO[C@H]2OCC[C@H]21)S(=O)(=O)c1ccccc1 (some centres unmarked)	50 to 500
CCOC(=O)C(CC)OP(=O)(COc1ccc(CC(NC(=O)OC2COC3OCCC23)C(O)CN(CC(C)C)S(=O)(=O)c2ccc(OC)cc2)cc1)Oc1ccccc1 (mixture of isomers) [drawing 659 R1=OPh R2=mix-Hba-Et]	< 50
CCOC(=O)[C@H](C)OP(=O)(COc1ccc(C[C@H](NC(=O)O[C@H]2CO[C@H]3OCC[C@H]32)[C@H](O)CN(CC(C)C)S(=O)(=O)c2ccc(OC)cc2)cc1)ON1CCOCC1 (stereo partly drawn) [drawing 660 R1=OMor R2=(S)Lac-Et]	> 5000
CCOC(=O)[C@H](C)OP(=O)(COc1ccc(C[C@H](NC(=O)O[C@H]2CO[C@H]3OCC[C@H]32)[C@H](O)CN(CC(C)C)S(=O)(=O)c2ccc(OC)cc2)cc1)Oc1cccc(CO)c1 (stereo partly drawn) [drawing 660 R1=OPh-m-CH2OH R2=(S)Lac-Et]	50 to 500
CCOC(=O)COP(=O)(COc1ccc(C[C@H](NC(=O)O[C@H]2CO[C@H]3OCC[C@H]32)[C@H](O)CN(CC(C)C)S(=O)(=O)c2ccc(OC)cc2)cc1)OCC(=O)OCC [drawing 656 R1=Glc-Et R2=Glc-Et]	500 to 5000
CCOC(=O)C(C)OP(=O)(COc1ccc(CC(NC(=O)OC2COC3OCCC23)C(O)CN(CC(C)C)S(=O)(=O)c2ccc(OC)cc2)cc1)Oc1ccccc1 (centres unmarked) [drawing 661 R1=OPh R2=Lac-Et]	50 to 500
CCCCOC(=O)CNP(=O)(COc1ccc(C[C@H](NC(=O)O[C@H]2CO[C@H]3OCC[C@H]32)[C@H](O)CN(CC(C)C)S(=O)(=O)c2ccc(OC)cc2)cc1)Oc1ccccc1 (some centres unmarked) [drawing 657 R1=OPh R2=Gly-Ru]	50 to 500
CCOC(=O)C(C)NP(=O)(COc1ccc(C[C@H](NC(=O)O[C@H]2CO[C@H]3OCC[C@H]32)[C@H](O)CN(CC(C)C)S(=O)(=O)c2ccc(OC)cc2)cc1)OCc1ccccc1 (some centres unmarked) [drawing 657 R1=OBn R2=Ala-Et]	< 50
CCOC(=O)[C@H](C)OP(=O)(COc1ccc(C[C@H](NC(=O)O[C@H]2CO[C@H]3OCC[C@H]32)[C@H](O)CN(CC(C)C)S(=O)(=O)c2ccc(OC)cc2)cc1)Oc1cccc(CN(C)CCOC)c1 (stereo partly drawn) [drawing 660 R1=OPh-m-CH2NMeC2OM R2=(S)Lac-Et]	50 to 500
COc1ccc(S(=O)(=O)N(CC(C)C)CC(O)C(CC2=CCN(CCP(=O)(O)OC(C)C(=O)O)CC2)NC(=O)OC2COC3OCCC23)cc1 (centres unmarked)	> 5000
CCOC(=O)C(C)OP(=O)(COc1ccc(CC(NC(=O)OC2COC3OCCC23)C(O)CN(CC(C)C)S(=O)(=O)c2ccc(CO)cc2)cc1)Oc1ccccc1 (centres unmarked)	< 50
CCOC(=O)C(C)OP(=O)(COc1ccc(CC(NC(=O)OC2COC3OCCC23)C(O)CN(CC(C)C)S(=O)(=O)c2ccc(OC)cc2)cc1)Oc1ccccc1OCC [drawing 660 R1=OPh-o-OEt R2=(S)Lac-Et]	< 50
CCOC(=O)C(C)OP(=O)(CCNc1ccc(CC(NC(=O)OC2COC3OCCC23)C(O)CN(CC(C)C)S(=O)(=O)c2ccc(OC)cc2)cc1)Oc1ccccc1 (single isomer, unassigned) [drawing 707]	< 50
CCOC(=O)[C@H](C)OP(=O)(COc1ccc(C[C@H](NC(=O)O[C@H]2CO[C@H]3OCC[C@H]32)[C@H](O)CN(CC(C)C)S(=O)(=O)c2ccc(OC)cc2)cc1)Oc1cccc(CN(C)C)c1 (stereo partly drawn) [drawing 660 R1=OPh-m-CH2NMe2 R2=(S)Lac-Et]	500 to 5000
CCOC(=O)C(C)OP(=O)(COc1ccc(C[C@H](NC(=O)O[C@H]2CO[C@H]3OCC[C@H]32)[C@H](O)CN(CC(C)C)S(=O)(=O)c2ccc(OCc3ccccc3)cc2)cc1)Oc1ccccc1 (some centres unmarked)	50 to 500
CCOC(=O)C(C)OP(=O)(Cc1ccc(NCC(NC(=O)OC2COC3OCCC23)C(O)CN(CC(C)C)S(=O)(=O)c2ccc(OC)cc2)cc1)Oc1ccccc1 (centres unmarked)	< 50
CCOP(=O)(O)COc1ccc(CC(NC(=O)OC2COC3OCCC23)C(O)CN(CC(C)C)S(=O)(=O)c2ccc(OC)cc2)cc1 (centres unmarked) [drawing 651 R1=OH R2=OEt]	50 to 500
CC(C)CN(C[C@@H](O)[C@H](Cc1ccc(OCP(=O)(OCc2ccccc2)OC(C)C(=O)OCc2ccccc2)cc1)NC(=O)O[C@H]1CO[C@H]2OCC[C@H]21)S(=O)(=O)c1ccc(OCc2ccccc2)cc1 (some centres unmarked)	> 5000

Compound	EC50 [nM]
CCOC(=O)C(CC)NP(=O)(CCNCc1ccc(C[C@H](NC(=O)O[C@H]2CO[C@H]3OCC[C@H]32)[C@H](O)CN(CC(C)C)S(=O)(=O)c2ccc(OC)cc2)cc1)Oc1ccccc1 (some centres unmarked) [drawing 662 R1=Ph R2=Aba-Et]	500 to 5000
CCOP(=O)(COc1ccc(C[C@H](NC(=O)O[C@H]2CO[C@H]3OCC[C@H]32)[C@H](O)CN(CC(C)C)S(=O)(=O)c2ccc(O)cc2)cc1)OCC [drawing 652 R1=Et R2=Et]	< 50
CCCCOC(=O)C(Cc1ccccc1)NP(=O)(COc1ccc(CC(NC(=O)OC2COC3OCCC23)C(O)CN(CC(C)C)S(=O)(=O)c2ccc(OC)cc2)cc1)NC(Cc1ccccc1)C(=O)OCCCC (centres unmarked) [drawing 655 R1=Phe-Bu R2=Phe-Bu]	< 50
CCOC(=O)[C@H](C)OP(=O)(COc1ccc(C[C@H](NC(=O)O[C@H]2CO[C@H]3OCC[C@H]32)[C@H](O)CN(CC(C)C)S(=O)(=O)c2ccc(OC)cc2)cc1)ON1CCCCC1 (stereo partly drawn) [drawing 660 R1=OPip R2=(S)Lac-Et]	500 to 5000
CCOC(=O)C(C)OP(=O)(COc1ccc(CC(NC(=O)OC2COC3OCCC23)C(O)CN(CC(C)C)S(=O)(=O)c2ccc(OC)cc2)cc1)Oc1ccccc1CC(C)C [drawing 660 R1=OPh—o-i-But R2=(S)Lac-Et]	< 50
CCOC(=O)C(C)OP(=O)(CCN1CC=C(CC(NC(=O)OC2COC3OCCC23)C(O)CN(CC(C)C)S(=O)(=O)c2ccc(OC)cc2)CC1)Oc1ccccc1 (centres unmarked)	> 5000
COc1ccc(S(=O)(=O)N(CC(C)C)C[C@@H](O)[C@H](Cc2ccc(OCP(=O)(Oc3ccccc3)OC(C)C(=O)OCCCN3CCOCC3)cc2)NC(=O)O[C@H]2CO[C@H]3OCC[C@H]32)cc1 (some centres unmarked) [drawing 658 R1=OPh R2=Lac-PrMor]	> 5000
COC(=O)C(C)OP(=O)(COc1ccc(C[C@H](NC(=O)O[C@H]2CO[C@H]3OCC[C@H]32)[C@H](O)CN(CC(C)C)S(=O)(=O)c2ccc(OC)cc2)cc1)Oc1ccccc1 (some centres unmarked) [drawing 658 R1=OPh R2=Lac-Me]	50 to 500
CCOP(=O)(OCC)c1ccc(CNCC(NC(=O)OC2COC3OCCC23)C(O)CN(CC(C)C)S(=O)(=O)c2ccc(OC)cc2)cc1 (centres unmarked)	< 50
COc1ccc(S(=O)(=O)N(CC(C)C)C[C@@H](O)[C@H](Cc2ccc(OCP(=O)(O)NC(C)C(=O)O)cc2)NC(=O)O[C@H]2CO[C@H]3OCC[C@H]32)cc1 (some centres unmarked) [drawing 657 R1=OH R2=Ala-OH]	> 5000
COc1ccc(S(=O)(=O)N(CC(C)C)C[C@@H](O)[C@H](Cc2ccc(OCP(=O)(Oc3ccccc3)O[C@@H](C)C(=O)OCCN3CCOCC3)cc2)NC(=O)O[C@H]2CO[C@H]3OCC[C@H]32)cc1 (stereo partly drawn) [drawing 659 R1=OPh R2=(S)Lac-EtMor]	> 5000
CCOC(=O)COP(=O)(COc1ccc(CC(NC(=O)OC2COC3OCCC23)C(O)CN(CC(C)C)S(=O)(=O)c2ccc(OC)cc2)cc1)Oc1ccccc1 (centres unmarked) [drawing 658 R1=OPh R2=Glc-Et]	< 50
CCOC(=O)C(C)OP(=O)(COc1ccc(C[C@H](NC(=O)O[C@H]2CO[C@H]3OCC[C@H]32)[C@H](O)CN(CC(C)C)S(=O)(=O)c2ccc(O)cc2)cc1)Oc1ccccc1 (some centres unmarked)	< 50
CCC(OP(=O)(COc1ccc(CC(NC(=O)OC2COC3OCCC23)C(O)CN(CC(C)C)S(=O)(=O)c2ccc(OC)cc2)cc1)Oc1ccccc1)C(=O)OC(C)(C)C [drawing 659 R1=OPh R2=(S)Hba-tBu]	< 50
CCOC(=O)C(C)OP(=O)(COc1ccc(CC(NC(=O)OC2COC3OCCC23)C(O)CN(CC(C)C)S(=O)(=O)c2ccc(OC)cc2)cc1)Oc1cccc(C(=O)O)c1 [drawing 660 R1=OPh-m-COOH R2=(S)Lac-Et]	50 to 500
CCOC(=O)C(Cc1ccccc1)NP(=O)(COc1ccc(CC(NC(=O)OC2COC3OCCC23)C(O)CN(CC(C)C)S(=O)(=O)c2ccc(OC)cc2)cc1)NC(Cc1ccccc1)C(=O)OCC (centres unmarked) [drawing 655 R1=Phe-Et R2=Phe-Et]	< 50
CCOC(=O)[C@H](C)OP(=O)(COc1ccc(C[C@H](NC(=O)O[C@H]2CO[C@H]3OCC[C@H]32)[C@@H](CN(CC(C)C)S(=O)(=O)c2ccc(OC)cc2)OC(=O)[C@H](N)C(C)C)cc1)Oc1ccccc1 (some centres unmarked)	50 to 500
CCCCOC(=O)C(C)NP(=O)(O)COc1ccc(C[C@H](NC(=O)O[C@H]2CO[C@H]3OCC[C@H]32)[C@H](O)CN(CC(C)C)S(=O)(=O)c2ccc(OC)cc2)cc1 (some centres unmarked) [drawing 657 R1=OH R2=Ala-Bu]	> 5000
COc1ccc(S(=O)(=O)N(CC(C)C)CC(O)C(Cc2ccc(OCP(=O)(O)OCc3ccccc3)cc2)NC(=O)OC2COC3OCCC23)cc1 (centres unmarked) [drawing 651 R1=OH R2=OBn]	500 to 5000
CCOC(=O)[C@H](C)OP(=O)(COc1ccc(C[C@H](NC(=O)O[C@H]2CO[C@H]3OCC[C@H]32)[C@H](O)CN(CC(C)C)S(=O)(=O)c2ccc(COC(=O)[C@H](N)C(C)C)cc2)cc1)Oc1ccccc1 (some centres unmarked)	50 to 500
CCOC(=O)C(C)OP(=O)(COc1ccc(CC(NC(=O)OC2COC3OCCC23)C(O)CN(CC(C)C)S(=O)(=O)c2ccc(OC)cc2)cc1)OCC(F)(F)F (centres unmarked) [drawing 658 R1=OCH2CF3 R2=Lac-Et]	50 to 500
